Laboratory results: patent publication US10703756B2, “Pyrrolo[2,3-D]pyrimidinyl, pyrrolo[2,3-B]pyrazinyl, pyrrolo[2,3-B]pyridinyl acrylamides and epoxides thereof” (Pfizer Inc., priority 2015, dated 2020)
Like-named read-outs stand apart in the source and are kept apart here.

Legend:
[1] = target: T1, JAK3 enzyme (Homo sapiens, UniProt P52333); test: JAK Caliper Enzyme Assay at 4 μM ATP; assay type: biochemical
T1 sequence (P52333 1-1124): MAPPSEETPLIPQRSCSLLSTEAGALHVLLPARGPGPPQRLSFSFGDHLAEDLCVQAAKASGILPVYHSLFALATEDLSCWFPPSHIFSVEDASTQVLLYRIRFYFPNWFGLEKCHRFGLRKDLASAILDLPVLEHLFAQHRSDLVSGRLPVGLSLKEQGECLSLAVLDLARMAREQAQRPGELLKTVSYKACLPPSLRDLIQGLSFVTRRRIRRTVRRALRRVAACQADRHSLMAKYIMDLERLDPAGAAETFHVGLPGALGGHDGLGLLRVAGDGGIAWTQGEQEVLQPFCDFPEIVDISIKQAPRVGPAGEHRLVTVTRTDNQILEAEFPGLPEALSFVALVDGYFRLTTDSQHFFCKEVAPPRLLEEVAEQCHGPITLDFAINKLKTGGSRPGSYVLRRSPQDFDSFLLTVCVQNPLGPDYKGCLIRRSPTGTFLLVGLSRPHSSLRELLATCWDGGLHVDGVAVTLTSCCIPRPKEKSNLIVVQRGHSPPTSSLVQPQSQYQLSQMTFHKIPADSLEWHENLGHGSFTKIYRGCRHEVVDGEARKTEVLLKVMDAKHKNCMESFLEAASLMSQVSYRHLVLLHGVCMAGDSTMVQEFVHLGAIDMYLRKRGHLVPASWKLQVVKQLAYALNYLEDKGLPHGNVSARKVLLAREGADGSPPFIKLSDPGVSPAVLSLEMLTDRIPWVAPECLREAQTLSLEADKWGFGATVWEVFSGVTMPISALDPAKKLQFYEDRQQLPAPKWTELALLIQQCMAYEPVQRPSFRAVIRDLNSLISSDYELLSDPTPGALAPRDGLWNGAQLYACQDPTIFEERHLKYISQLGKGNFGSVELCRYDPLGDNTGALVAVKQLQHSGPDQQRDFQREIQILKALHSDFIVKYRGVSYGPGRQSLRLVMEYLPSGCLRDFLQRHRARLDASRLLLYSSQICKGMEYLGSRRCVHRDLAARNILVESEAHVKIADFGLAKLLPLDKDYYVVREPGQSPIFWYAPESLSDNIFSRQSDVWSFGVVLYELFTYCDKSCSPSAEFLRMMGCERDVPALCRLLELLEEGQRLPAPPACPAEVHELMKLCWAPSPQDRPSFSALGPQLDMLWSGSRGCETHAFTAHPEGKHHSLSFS
How it was run: (§1)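 Peptide phosphorylation by the kinase, adjusted to 20%-30% conversion, is measured by microfluidic separation of substrate and product on a Caliper LC3000. Compounds run as 11-point half-log series from a 600 μM DMSO top concentration.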

[2] = target: T1, JAK3 enzyme; test: JAK Caliper Enzyme Assay at 1 mM ATP; assay type: biochemical
How it was run: as §1

[3] = test system: IL-15 induced P-STAT5 in human PBMC; test: PBMC IL-15 Induced P-STAT5; assay type: cell-based
Procedure: PBMC IL-15 Induced P-STAT5
Test compounds were serially diluted in DMSO, with further dilution of the compounds in RPMI 1640 medium (Invitrogen #72400) supplemented with 10 mM HEPES, pH 7.4, 1 mM sodium pyruvate, and Penicillin/Streptomycin (by adding 5 μL compound/DMSO in 120 μL Dulbecco's Phosphate-Buffered Saline (D-PBS, 1×), [DMSO]=4%, and mixing the solution by repeated pipetting, 6×). IL-15 was diluted to the concentration at 820 ng/mL in RPMI 1640 medium.
Frozen human PBMC (200-250 million cells/vial) was thawed at 37° C. The cells were transferred to 10 mL warm medium in a 50-mL conical tube, and centrifuged at 1,200 RPM at room temperature for 5 min. The supernatant was aspirated. Cells were suspended in 3 mL warm human plasma and incubated at 37° C. in a tissue culture incubator for 1.5 to 2 h. After adding 47 ml D-PBS (37° C.) to PBMC/FBS suspension, centrifuging at 1,200 RPM at room temperature for 5 min, and aspirating the supernatant, the cells were resuspended in 20 mL warm RPMI medium. Ninety μL of cell suspension were pipetted per well in a 96-well, deep-well, V-bottom plate, and the plate was incubated at 37° C. for 30 min. Five μL of compound were transferred to each well (final 0.2% DMSO), vortex gently and incubate at 37° C. for 15 min; 5 μL 4% DMSO/PBS were added to the control wells. After adding 5 μL 820 ng/mL of human IL-15 (final 41 ng/mL) to each well (5 μL PBS to the control wells), vortexing gently and incubating at 37° C. for 15 min, followed by 0.3 mL 1% paraformaldehyde/PBS (37° C.) to each well, and incubating the plate at room temperature for 15 min, the plates were centrifuged at 1,200 RPM (Beckman GS-6R or Sorvall Legend) at room temperature for 5 min, and the supernatant was aspirated using a 8-channel or 12-channel manifold. After adding 0.8 mL staining buffer per well, the plates were centrifuged at 1,200 RPM (Beckman GS-6R or Sorvall Legend) at room temperature for 5 min, and again the supernatant was aspirated using a 8-channel or 12-channel manifold. The plate was vortexed, and 0.35 mL 90% methanol/10% H2O (−20° C.) was added per well, and the plate incubated on ice for 20 min. After again adding 0.8 mL staining buffer per well, the plates were centrifuged at 1,200 RPM (Beckman GS-6R or Sorvall Legend) at room temperature for 5 min, and again the supernatant was aspirated using a 8-channel or 12-channel manifold, and then 0.8 mL Staining buffer was added per well. After once again adding 0.8 mL staining buffer per well, the plates were centrifuged at 1,200 RPM (Beckman GS-6R or Sorvall Legend) at room temperature for 5 min, and again the supernatant was aspirated using a 8-channel or 12-channel manifold. Then the plate was vortexed, and 250 μL/well of Alexa Fluor® 647 conjugated anti-STAT5 antibody ([…]; […]) was added, and the plate was incubated at 4° C. overnight in the dark. Samples of 250 μL/well were transferred to a 96-well U-bottom plate, and the FACS analysis was performed gating on total lymphocytes. Samples were analyzed using a BD Calibur™ or BD FACSCanto™ flow cytometer equipped with the BD High Throughput Sampler.

[4] = human PBMC, IL-15 final 41 ng/mL, read-out: PBMC IL15_pSTAT5_IC50

Structure (SMILES)	IC50 [1]	IC50 [2]	IC50 [3, 4]	IC50 ([3]; Homo sapiens, PBMC, read-out: PBMC IL15_pSTAT5_IC50 (nM))
C=CC(=O)N1CC[C@H](Oc2cnc3[nH]cc(C(=O)NCC)c3n2)[C@@H](C)C1 (single isomer, unassigned) [Example 48]	49.1 nM	3060 nM	6690 nM	
C=CC(=O)N1C[C@@H](Nc2ncnc3[nH]ccc23)CC[C@H]1CNC(C)=O (single isomer, unassigned) [Example 90]	1.04 nM	152 nM	3220 nM	
C=CC(=O)N1C[C@H](CC#N)C[C@H](Nc2ncnc3[nH]ccc23)C1 (single isomer, unassigned) [Example 107]	11.8 nM	1240 nM	8260 nM	
C=CC(=O)N1CCC(Oc2cnc3[nH]cc([C@@H](C)O)c3n2)CC1 (single isomer, unassigned) [Example 119]	34.2 nM	3930 nM	9310 nM	
C=CC(=O)N1CC[C@H](Nc2cnc3[nH]cc(C(=O)N[C@H](C)COC)c3n2)C[C@@H]1C (stereo in doubt) [Example 354, 2-(((2S,4S)-1-Acryloyl-2-methylpiperidin-4-yl)amino)-N—((R)-1-methoxypropan-2-yl)-5H-pyrrolo[2,3-b]pyrazine-7-carboxamide]	3.41 nM	261 nM	4520 nM	
C=CC(=O)N1CC[C@H](Oc2cnc3[nH]cc(C(=O)N[C@H](C)COC)c3n2)C1 [Example 54, 2-{[(3S)-1-acryloylpyrrolidin-3-yl]oxy}-N-[(2R)-1-methoxypropan-2-yl]-5H-pyrrolo[2,3-b]pyrazine-7-carboxamide]	2.49 nM	345 nM		1640 nM
C=CC(=O)N(C)C1CN(c2cnc3[nH]cc(C(=O)NCC)c3n2)C1 [Example 59, 2-{3-[acryloyl(methyl)amino]azetidin-1-yl}-N-ethyl-5H-pyrrolo[2,3-b]pyrazine-7-carboxamide]	6.26 nM	1200 nM	4870 nM	
C=CC(=O)N1CCC(C)(Oc2cnc3[nH]cc(C(=O)NCC)c3n2)CC1 [Example 61, 2-[(1-acryloyl-4-methylpiperidin-4-yl)oxy]-N-ethyl-5H-pyrrolo[2,3-b]pyrazine-7-carboxamide]	3.39 nM	564 nM	2170 nM	
C=CC(=O)N(C)C1CN(c2cnc3[nH]cc(C(=O)NCCOC)c3n2)C1 [Example 84, 2-{3-[acryloyl(methyl)amino]azetidin-1-yl}-N-(2-methoxyethyl)-5H-pyrrolo[2,3-b]pyrazine-7-carboxamide]	1.67 nM	329 nM	1220 nM	
C=CC(=O)N1CCN(c2cnc3[nH]cc(C(=O)N[C@@H](CC)COC)c3n2)CC1(C)C [Example 135, 2-(4-acryloyl-3,3-dimethylpiperazin-1-yl)-N-[(2S)-1-methoxybutan-2-yl]-5H-pyrrolo[2,3-b]pyrazine-7-carboxamide]	1.49 nM	168 nM	759 nM	
C=CC(=O)N1CCN(c2cnc3[nH]cc(C(=O)N[C@H](C)CC#N)c3n2)CC1(C)C [Example 152, 2-(4-acryloyl-3,3-dimethylpiperazin-1-yl)-N-[(2R)-1-cyanopropan-2-yl]-5H-pyrrolo[2,3-b]pyrazine-7-carboxamide]	1.97 nM	256 nM	510 nM	
C=CC(=O)N1CCN(c2cnc3[nH]cc(C(=O)N[C@@H](C)C(=O)OC)c3n2)CC1(C)C [Example 158, Methyl N-{[2-(4-acryloyl-3,3-dimethylpiperazin-1-yl)-5H-pyrrolo[2,3-b]pyrazin-7-yl]carbonyl}-L-alaninate]	3.07 nM	365 nM	888 nM	
C=CC(=O)N1CCN(c2cnc3[nH]cc(C(=O)NC(CC)(CC)CO)c3n2)CC1(C)C [Example 163, 2-(4-acryloyl-3,3-dimethylpiperazin-1-yl)-N-[3-(hydroxymethyl)pentan-3-yl] 5H-pyrrolo[2,3-b]pyrazine-7-carboxamide]	1.24 nM	160 nM	409 nM	
C=CC(=O)N1CCC(Nc2cnc3[nH]cc(C(=O)NCc4nc(C)cc(C(F)(F)F)n4)c3n2)CC1 [Example 171, 2-[(1-acryloylpiperidin-4-yl)amino]-N-{[4-methyl-6-(trifluoromethyl)pyrimidin-2-yl]methyl}-5H-pyrrolo[2,3-b]pyrazine-7-carboxamide]	0.928 nM	55 nM	947 nM	
C=CC(=O)N1CCC(Nc2cnc3[nH]cc(C(=O)NCc4cc(C5CCC5)nn4C)c3n2)CC1 [Example 173, 2-[(1-acryloylpiperidin-4-yl)amino]-N-[(3-cyclobutyl-1-methyl-1H-pyrazol-5-yl)methyl]-5H-pyrrolo[2,3-b]pyrazine-7-carboxamide]	0.681 nM	43 nM	1420 nM	
C=CC(=O)N1CCC(Nc2cnc3[nH]cc(C(=O)NCc4nc5cc(F)ccc5o4)c3n2)CC1 [Example 177, 2-[(1-acryloylpiperidin-4-yl)amino]-N-[(5-fluoro-1,3-benzoxazol-2-yl)methyl]-5H-pyrrolo[2,3-b]pyrazine-7-carboxamide]	0.626 nM	25 nM	420 nM	
C=CC(=O)N1CCC(Nc2cnc3[nH]cc(C(=O)NCCc4nc5ccc(F)c(F)c5o4)c3n2)CC1 [Example 182, 2-[(1-acryloylpiperidin-4-yl)amino]-N-[2-(6,7-difluoro-1,3-benzoxazol-2-yl)ethyl]-5H-pyrrolo[2,3-b]pyrazine-7-carboxamide]	2.44 nM	165 nM	> 10000 nM	
C=CC(=O)N1CCC(Nc2cnc3[nH]cc(C(=O)NCc4ccc(-n5cccn5)cc4)c3n2)CC1 [Example 183, 2-[(1-acryloylpiperidin-4-yl)amino]-N-[4-(1H-pyrazol-1-yl)benzyl]-5H-pyrrolo[2,3-b]pyrazine-7-carboxamide]	1.03 nM	41 nM	1590 nM	
